Laboratory results from patent US11964935B2, “Gingerol derivative having inhibitory activity against biofilm formation and pharmaceutical composition comprising same as effective ingredient for preventing or treating biofilm-caused infection symptom” (Korea University Research and Business Foundation, Sejong …, priority 2017, dated 2024).
Entries after “also recorded” stand apart in the source; their conditions may differ.

How the values were obtained:
[1] = system: P. aeruginosa; settings: cited from earlier work
[2] = system: P. aeruginosa PA14; experiment: Static biofilm formation assay; type: cell-based, Pseudomonas aeruginosa; settings: 10 μM
Protocol: Overnight culture of P. aeruginosa PA14 (OD595=1.0) was diluted (1:20) with the AB medium (300 mM NaCl, 50 mM MgSO4, 0.2% vitamin-free casamino acids, 10 mM potassium phosphate, 1 mM L-arginine, and 1% glucose, pH 7.5) (1:20) containing with either positive controls or synthesized compounds (0-100 μM). The dilutions were aliquoted into borosilicate bottles, and the bottles were incubated at 37° C. for 24 h without agitation. After that, OD595 of the cell suspension was measured on the VICTOR ×5 multimode plate reader. The biofilm cells attached to the bottle were washed two times with phosphate buffered saline (PBS; 137 mM NaCl, 2.7 mM KCl, 10 mM Na2HPO4, and 2 mM KH2PO4, pH 7.2) and stained with 0.1% crystal violet for […] Next, the stained biofilm cells were eluted with 100% ethyl alcohol, and OD540 was measured on the VICTOR ×5 multimode plate reader. The biofilm formation was quantified by dividing OD540 with OD595.

[3] = target: T1, LasR (Pseudomonas aeruginosa, UniProt P25084); experiment: LasR reporter gene assay (E. coli reporter strain, luminescence, competition with OdDHL); type: cell-based; settings: compound 1 μM or 10 μM in the presence of 1 μM OdDHL (compound 1a)
T1 construct: expressed in transfected cells; host or cells: E. coli DH5α (printed DHSα) co-transformed with pJN105L and pSC11
T1 sequence (P25084 whole entry): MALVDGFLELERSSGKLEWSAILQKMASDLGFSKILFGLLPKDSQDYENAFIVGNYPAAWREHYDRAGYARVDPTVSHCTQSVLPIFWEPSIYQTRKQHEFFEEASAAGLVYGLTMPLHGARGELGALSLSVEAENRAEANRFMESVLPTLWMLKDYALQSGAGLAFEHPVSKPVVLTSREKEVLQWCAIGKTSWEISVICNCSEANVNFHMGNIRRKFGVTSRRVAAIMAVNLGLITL
Protocol: This assay was conducted by modifying a previously reported method. E. coli DHSα co-transformed with two plasmids, pJN105L (LasR expression plasmid) and pSC11 (lasI::lacZ fusion plasmid), was used as a bioassay reporter strain. Overnight culture of the reporter strain with 10 μg/mL gentamicin and 50 μg/mL ampicillin was diluted in the Luria-Bertani (LB) medium (1:100). Then, the reporter strain (optical density at 595 nm [OD595] was 0.3) mixed with either a positive control or the synthesized compound was incubated with OdDHL (Sigma-Aldrich, St. Louis, MO., USA) and 0.4% arabinose (Sigma-Aldrich). After incubation at 37° C. for 1.5 h, OD595 was measured on a VICTOR ×5 multimode plate reader (PerkinElmer, Waltham, Mass., USA). The β-galactosidase activity was determined using a Tropix plus kit (Applied Biosystems, USA), and luminescence was measured on the VICTOR ×5 multimode plate reader. RLU ratio was quantified by dividing luminescence with OD595.
LasR-binding affinity of the synthesized gingerols (compounds 4-10) with various alkyl chain lengths was determined by measuring luminescence of an E. coli reporter strain. The reporter strain carried two plasmids, pJN105L (LasR expression plasmid) (Lee, J. H.; Lequette, Y.; Greenberg, E. P. Activity of purified QscR, a Pseudomonas aeruginosa orphan quorum-sensing transcription factor. Mol. Microbiol. 2006, 59, 602609.) and pSC11 (las1::lacZ fusion plasmid) (Chugani, S. A.; Whiteley, M.; Lee, K. M.; D'Argenio, D.; Manoil, C.; Greenberg, E. P. QscR, a modulator of quorum-sensing signal synthesis and virulence in Pseudomonas aeruginosa. Proc. Natl. Acad. Sci. U.S.A. 2001, 98, 27522757.), which enabled assay of competitive binding of OdDHL with each gingerol derivative 4-10. Antagonistic activities of the synthesized compounds at 1 μM or 10 μM were determined by measuring luminescence in the presence of 1 μM OdDHL (compound 1a) and presented as relative luminescence unit (RLU) ratio. Three compounds (compounds 1b, 1c, and 1d) served as positive controls. […] Just as the LasR inhibition, inhibition of biofilm formation also strengthened as the carbon chain was extended at 10 μM ((B) of FIG. 3). However, inhibition of biofilm formation decreased with 9-gingerol (compound 9) and 10-gingerol (compound 10) at 100 μM ((C) of FIG. 3) because of increased bacterial growth inhibition. […] This effect may be due to the fact that compounds 9 and 10 act as a surfactant, which inhibits bacterial growth. Agonistic activities of compounds 4-10 in an E. coli reporter assay system in the absence of OdDHL were next examined.

[4] = system: P. aeruginosa PA14; experiment: Growth inhibition assay; type: cell-based, Pseudomonas aeruginosa; settings: 100 μM, 24 h
Protocol: A 5% dilution of overnight culture of P. aeruginosa PA14 (OD595=1.0) containing either a positive control or the synthesized compound (0-100 μM) was inoculated into wells of a 96-well polystyrene microtiter plate (Sigma-Aldrich). The plate was incubated at 37° C. for 24 h. OD595 of the suspension culture was measured on the VICTOR ×5 multimode plate reader.

[5] = system: P. aeruginosa PA14; experiment: Dynamic biofilm formation assay (drip-flow reactor, CLSM); type: cell-based, Pseudomonas aeruginosa; settings: for Biofilm thickness / Biofilm volume: 10 μM compound, Comstat2; for Biofilm thickness / Biofilm volume / Biofilm formation in CLSM images, in words: 48 h drip-flow reactor; for Biofilm formation in CLSM images, in words: compared with DMSO or compound 1c
Protocol: Glass slides were dipped into a Petri dish containing 2 mL of a P. aeruginosa PA14 suspension (OD595=1.0) and 18 mL of the AB medium, followed by incubation at 37° C. for 24 h to let the cells adhere to the slides. The slides were then inserted into a drip-flow reactor (DFR-110, BioSurface, Mont., USA). The AB medium with either a positive control or the synthesized compound (0-10 μM) was fed into the reactor continuously via a peristaltic pump (Masterflex C/L tubing pumps, Cole-Parmer, IL, USA) at 0.3 mL/min After operation of the reactor at 37° C. for 48 h, the cells on the slides were washed two times with PBS. The biofilm cells were stained with fluorescein isothiocyanate-labeled type IV ConA (Sigma-Aldrich) and SYPRO Ruby (Ruby, Invitrogen, Carlsbad, CA, USA) for 15 min, respectively. CLSM images were captured via a 20× objective lens (W N-Achroplan 20×/0.5 W [DIC] M27) with green fluorescence (ConA, excitation wavelength of 490 nm, emission wavelength of 525 nm) and red fluorescence (Ruby, excitation wavelength of 470 nm, emission wavelength of 618 nm) and were analyzed in the Zen 2011 software (Carl Zeiss, Jena, Germany). For quantification, biofilm volume (μm^3/μm^2) and average thickness (μm) were measured by means of Comstat2 in ImageJ.
A dynamic biofilm formation assay of compounds 41 and 42 was performed in a drip-flow reactor. Compound 1c served as a positive control, and DMSO served as a negative control. After 48 h drip-flow reactor operation, the biofilm was stained with Ruby and concanavalin A (ConA). Ruby (red) is a reagent for staining protein, and ConA (green) is for carbohydrate of biofilm. As shown in (A) of FIG. 8, the biofilm in the presence of DMSO formed with typical mushroom-like morphology. […] Biofilm volume and thickness with compound 41 were the lowest among the three groups (Table 1).

[6] = target: T1, LasR; experiment: LasR reporter gene assay (E. coli reporter strain, luminescence, competition with OdDHL); type: cell-based; settings: compound 1 μM; compound 1a 0, 0.1, 1, 10 and 100 μM

Row | Compound | Biofilm formation and production of virulence factors (previously demonstrated) ([1]; competition with OdDHL for LasR) | Inhibition of biofilm formation, in words ([2]; 24 h, static) | LasR-antagonistic activity / LasR-binding affinity (RLU ratio), in words [3] | Bacterial growth inhibition [4] | Biofilm thickness ([5]; CLSM) [μm] | Biofilm volume ([5]; CLSM) [μm^3/μm^2] | Biofilm formation in CLSM images, in words ([5]; 10 μM) | Volume of carbohydrates in biofilm compared to the other groups ([5]; ConA staining, CLSM, 10 μM) | Volume of proteins in biofilm compared to the other groups ([5]; Ruby staining, CLSM, 10 μM) | Binding reversibility to LasR [6] | Biofilm formation relative to compound 1c ([2]; static assay, effect of compound 1c set to 100%) [%] | Expression of virulence factors (prior report) ([1]; interference with P. aeruginosa QS systems)
1 | CCCCC[C@H](O)CC(=O)CCc1ccc(O)c(OC)c1 [Compound 1b, (S)-6-gingerol] | reduces biofilm formation and production of virulence factors |  |  |  |  |  |  |  |  |  |  | 
2 | CCCCCCC[C@@H](O)CC(=O)/C=C/c1ccc(O)c(OC)c1 [Compound 41, (R,E)-5-Hydroxy-1-(4-hydroxy-3-methoxyphenyl)dodec-1-en-3-one] |  | greater inhibition of biofilm formation | stronger LasR-binding affinity | bacterial growth inhibition was not observed | 10.3 ± 0.1 | 7.4 ± 0.2 | relatively thin and sparse; also recorded: inhibited biofilm formation more effectively than compound 1c did | 47-74% | 23-56% | binds reversibly to LasR |  | 
3 | CCCCCCC[C@@H](O)CC(=O)CCc1ccc(O)c(OC)c1 [Compound 42, (R)-5-Hydroxy-1-(4-hydroxy-3-methoxyphenyl)dodecan-3-one] |  |  | much stronger LasR-binding affinity than compound 1c | bacterial growth inhibition was not observed | 13.9 ± 0.1 | 9.7 ± 1.1 | relatively thin and sparse; also recorded: inhibited biofilm formation more effectively than compound 1c did |  |  |  | 72 | 
4 | O=C1C=C(Br)/C(=C/Br)O1 [Compound 1d, (Z)-4-bromo-5-(bromomethylene)furan-2(5H)-one] |  |  |  |  |  |  |  |  |  |  |  | inhibits the expression of virulence factors
